{"source": "patent US20240032557A1", "about": "“AN IRON FORTIFIED TEA COMPOSITION” (Ekaterra Tea Manufacturing USA LLC, priority 2020, published 2024)", "origin": "cited, not measured here", "settings": "water at 25° C.", "data": [{"smiles": "O=C([O-])/C=C/C(=O)[O-].[Fe+2]", "note": "[ferrous fumarate]", "values": [{"measurement": "solubility", "value": 0.14, "unit": "g/100 g water"}]}]}
